Data from patent US20100286139A1, “AMINO PYRAZOLE COMPOUND” (ELI LILLY AND COMPANY, priority 2008, published 2010).

Biological target: T1, JAK2 (Homo sapiens, UniProt O60674)
T1 construct: endogenous in cells; host or cells: TF-1 (human erythroid leukemia) cells, EPO-stimulated
Experiment: JAK2 EPO-TF1/pSTAT5 cell-based assay (Cellomics ArrayScan HCS)
Details: TF-1 cells, EPO 1.6 U/mL stimulated, n=4; read-out: relative IC50, inhibition of pSTAT5
Text: JAK2 EPO-TF1/pSTAT5 cell-based assay mimics the constitutive activation of JAK2-STAT5 in erythroid progenitor cells, which drives the overproduction of red blood cells, a marker of polycythemia vera (PV).
TF-1 (human erythroid leukemia) cells are maintained in RPMI 1640 (RPMI-1640 was developed by Moore et. al. at Roswell Park Memorial Institute. The formulation is based on the RPMI-1630 series of media utilizing a bicarbonate buffering system and alterations in the amounts of amino acids and vitamins.) with 10% fetal bovine serum (FBS), 0.075% sodium bicarbonate, 1 mM sodium pyruvate, 1× antibiotic/antimycotic (Invitrogen, Carlsbad, Calif.) and 0.45% glucose. The medium is supplemented with GM-CSF (granulocyte-macrophage colony-stimulating factor) at a final concentration of 2 ng/mL. Cells are kept at 37° C. with 5% CO2. Cells are starved in serum free medium to remove endogenous growth factors. TF-1 cells are counted and cells are collected to seed 2×10^7 cells per 96-well plate at a density of 2×10^5 cells per well. […]
To perform the assay, serum-starved cells are collected and washed once with unsupplemented RPMI 1640 medium. […] An aliquot of 200 μL of 1 to 10 dilution of Mouse anti-pSTAT5 (pY694) Alexa Fluor 647® in fluorescence activated cell sorting (FACS) buffer is added to the cells. […]

T1 sequence (O60674 whole entry): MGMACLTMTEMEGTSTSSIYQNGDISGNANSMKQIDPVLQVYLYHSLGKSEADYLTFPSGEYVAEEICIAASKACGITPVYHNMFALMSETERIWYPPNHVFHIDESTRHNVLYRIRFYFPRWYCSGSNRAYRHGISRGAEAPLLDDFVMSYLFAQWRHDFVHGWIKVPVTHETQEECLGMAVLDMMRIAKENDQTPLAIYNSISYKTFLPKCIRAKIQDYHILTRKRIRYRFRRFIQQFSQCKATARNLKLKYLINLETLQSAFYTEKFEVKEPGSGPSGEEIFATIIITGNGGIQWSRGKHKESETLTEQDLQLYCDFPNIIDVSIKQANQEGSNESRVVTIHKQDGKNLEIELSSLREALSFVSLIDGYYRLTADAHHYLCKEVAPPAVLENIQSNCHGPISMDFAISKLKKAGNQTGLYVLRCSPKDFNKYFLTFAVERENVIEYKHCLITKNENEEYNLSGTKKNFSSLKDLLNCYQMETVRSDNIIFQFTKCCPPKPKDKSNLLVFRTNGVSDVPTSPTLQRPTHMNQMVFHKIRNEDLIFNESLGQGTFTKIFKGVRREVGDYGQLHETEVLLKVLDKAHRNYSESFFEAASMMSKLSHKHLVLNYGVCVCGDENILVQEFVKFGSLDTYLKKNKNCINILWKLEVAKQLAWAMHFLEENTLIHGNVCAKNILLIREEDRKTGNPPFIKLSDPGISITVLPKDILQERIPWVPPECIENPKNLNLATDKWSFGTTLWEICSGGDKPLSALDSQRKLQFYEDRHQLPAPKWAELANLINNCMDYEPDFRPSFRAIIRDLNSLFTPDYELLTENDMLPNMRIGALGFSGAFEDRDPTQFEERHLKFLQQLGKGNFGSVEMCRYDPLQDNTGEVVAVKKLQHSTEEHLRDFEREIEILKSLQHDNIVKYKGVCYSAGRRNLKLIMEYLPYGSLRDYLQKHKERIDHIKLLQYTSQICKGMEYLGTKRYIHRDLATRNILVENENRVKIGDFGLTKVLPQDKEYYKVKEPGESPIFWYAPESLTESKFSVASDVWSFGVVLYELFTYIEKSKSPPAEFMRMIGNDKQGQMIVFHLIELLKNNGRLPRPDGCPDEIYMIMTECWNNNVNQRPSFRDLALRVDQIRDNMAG

`Cc1cc(Nc2cc(CN3CCOCC3)c3nc(C)c(Cc4ccc(Cl)cc4F)n3n2)n[nH]1` [3-(4-Chloro-2-fluorobenzyl)-2-methyl-N-(5-methyl-1H-pyrazol-3-yl)-8-(morpholinomethyl)imidazo[1,2-b]pyridazin-6-amine] was tested, and the IC50 was 33 nM.
